Assay results as given in patent US20220387358A1, “CERAMIDE ANALOG SACLAC MODULATES SPHINGOLIPID LEVELS AND MCL-1 SPLICING TO INDUCE APOPTOSIS IN ACUTE MYELOID LEUKEMIA” (University of Virginia Patent Foundation, priority 2019, published 2022).

Test system: OCI-AML2 cells
Test: Caspase 3/7 activation
Format: cell-based, human
Settings: increasing doses; 24 hours
Experimental: Apoptosis in cell lines was assessed after treating 2.5×10^5 cells per ml with drug or vehicle in a 48-well plate for the indicated time points and doses. Primary human AML cells were pre-incubated with SFEM for 48 hours before plating 2×10^5 cells in 24-well plates for the indicated times point and doses. Samples were stained using the Muse Annexin V & Dead Cell Kit (Millipore #MCH100105). Change in mitochondrial membrane potential in cell lines was measured with the Muse® MitoPotential Kit (#MCH100110, MilliporeSigma, Burlington, Mass., United States of America). Caspase activation was measured using the Muse® Caspase 3/7 Assay Kit (#MCH100108, MilliporeSigma, Burlington, Mass., United States of America). For rescue experiments, cells were plated at 2.5×10^4 well in a 96-well plate 24 hours after electroporation. Cells were treated with DMSO or […] for 48 hours and apoptosis was detected as stated above. All kits were used according to manufacturer's protocol. Cells were then analyzed using the Muse® Cell Analyzer (MilliporeSigma, Burlington, Massachusetts, United States of America) (35,36). Experiments included positive and negative controls for proper analysis.

CCCCCCCCCCCCCCC[C@@H](O)[C@H](CO)NC(=O)CCl [SACLAC, N-[(2S,3R)-1,3-dihydroxyoctadecan-2-yl]2-chloroacetamide]
caspase 3/7 activation: dose-dependent caspase activation
